Assay results from patent publication US9434711B2 (Janssen Pharmaceutica, NV, priority 2007, dated 2016).
Where two headings read alike, the source gives them in different places.

Tests used:
canine TRPM8 [1] = target: T1, canine TRPM8 (Canis lupus familiaris, UniProt Q1A7N1); assay: In Vitro Canine TRPM8 Functional Assay (Ca2+ fluorescence, icilin activation); assay type: cell-based; conditions: for IC50: HEK293 cells stably expressing canine TRPM8, icilin activation, eight-point dose-response, read-out: IC50; for inhibition at 0.2 µM: compound at 0.2 μM, canine TRPM8, icilin activation, read-out: % Inh @ 0.2
Procedure, shortened: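 HEK293 cells stably expressing canine TRPM8 were loaded with Calcium 3 dye (35 min at 37 °C, then 25 min at room temperature). Compound was added and Ca2+ fluorescence was read for 5 min before icilin at a concentration giving about 80% maximal response. EC50/IC50 came from eight-point dose-response curves, quadruplicate wells.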

human TRPM8 = human TRPM8 (Homo sapiens (Human), UniProt Q7Z2W7); assay: In Vitro Human TRPM8 Functional Assay (Ca2+ fluorescence, icilin EC80); assay type: cell-based; conditions: read-out: hTRPM8 IC50
Experimental: HEK293 cells are routinely grown as monolayer in Dulbecco's minimum essential medium supplemented with 10% FBS, 1 mM L-glutamine, 100 units/mL penicillin and 100 ug/mL streptomycin. Cells are maintained in 5% CO2 at 37° C.
For functional expression of TRPM8, the full-length cDNA encoding human and rat TRPM8 are subcloned into pCI-NEO mammalian expression vectors. The expression constructs are transiently transfected into HEK293 cells according to the FuGENE 6 Transfection Reagent® (ROCHE) instructions. Within twenty-four hours, transiently transfected cells are harvested and either seeded directly into assay plate or cryopreserved for future usage. […]
Maximal fluorescence intensity (FI) achieved upon addition of icilin is exported from the FDSS and further analyzed using GraphPad Prism 3.02 (Graph Pad Software Inc., CA, U.S.A.) where data is normalized to percent of maximal response. The dose response curves from the average of quadruplicate wells for each data point are analyzed by using nonlinear regression of either sigmoidal dose response or sigmoidal dose response (variable slope). Finally, the IC50 values are calculated with the best-fit dose curve determined by Prism.

canine TRPM8 [2] = target: T1, canine TRPM8; assay: TRPM8 Patch Clamp Assays (whole-cell, menthol or cold activation); assay type: cell-based
Experimental: For patch clamp experiments, HEK293 cells are stably transfected with canine TRPM8 and cultured in DMEM supplemented with 10% fetal bovine serum, 100 units/ml penicillin, 100 μg/ml streptomycin and 1 mg/ml G418. Cells are maintained at 37° C. and in 5% CO2.
The extracellular solution contains (in mM): NaCl, 132; EGTA, 1; KCl, 5.4; MgCl2, 0.8; HEPES, 10; glucose, 10; pH=7.4. Recordings are performed using the conventional whole-cell patch clamp technique, 1-2 days after plating cells onto glass coverslips at densities appropriate for single cell recording. Currents are amplified by a patch clamp amplifier and filtered at 2 kHz (Axopatch 200B, Molecular Devices, Union City, Calif.). Menthol (100 μM) is applied to the cell at 0.5 ml/min via a gravity-fed perfusion system. Recordings involving menthol activation are performed at 22° C.
In experiments where temperatures are varied, temperature ramps are generated by cooling the perfusate in an in-line cooler (Model SC-20, Warner Instruments, Hamden, Conn.) controlled by a temperature controller (Model CL-100, Warner Instruments). The temperature in the vicinity of the recorded cell is measured with a custom-made miniature thermo-microprobe connected to a monitoring thermometer (Model TH-8, Physitemp, Clifton, N.J.), and sampled using Digidata 1322A and pClamp 9.0 (Molecular Devices), as are the currents concurrently measured in the whole-cell patch clamp mode. The current is continuously sampled (at 100 Hz) at a holding potential of −60 mV.
Compounds of the formula (I) are diluted from 10 mM DMSO stocks (stored at −20° C.) into an extracellular solution either containing 100 μM menthol or subjected to cooling. Increasing concentrations of a compound are applied to a cell in a cumulative manner and concentration-dependent responses are measured after steady-state activation is achieved by either 100 μM menthol or cooling to 10° C. A saturating concentration of a reference antagonist is applied at the end of an experiment (either in the presence of 100 μM menthol or 10° C. temperature) to establish the baseline from which all the other measurements are subtracted.
Percentage inhibition by a compound is calculated as follows:
100×(1−Icomp/I0); where Icomp and I0 are steady-state current amplitudes in either the presence or absence of a concentration of compounds of the formula (I).

male Sprague-Dawley rats = assay: Rat Carrageenan-Induced Radiant Heat Hypersensitivity; assay type: in vivo; conditions: dose 30 p.o., HPbCD, Na salt form
Experimental: Intraplantar injection of carrageenan into the hind paw of rats causes a robust acute inflammatory response characterized by reddening, swelling and hypersensitivity of the paw to thermal and mechanical stimuli typically peaking 3-6 hours following application and subsiding over the 12-24 hours.
To assess the effect of test compounds of the formula (I) on inflammatory hyperalgesia radiant heat response latencies were evaluated 3 hours following intraplantar carrageenan (Lambda, Type IV, 200 uL) injection into a single hind paw in male Sprague-Dawley rats. The test compound was administered either 2 hours prior to or 1 hour following carrageenan injection. The intent was to determine whether the compound would prevent or retard the hypersensitivity associated with this inflammogen. Baseline thermal response latencies were determined prior to any treatment and again 3 hours after carrageenan injection. Percent reversal of hyperalgesia relative to vehicle treatment (% R) was calculated for both compound treatment paradigms according to the following formula and is depicted in Table 8: % R=(Post compound latency−Post vehicle latency)/((Baseline latency−Post vehicle latency)×100%

[3] = treatment 1 hour relative to Cg
[4] = treatment −2 hours relative to Cg

T1 sequence (Q1A7N1 1-1104): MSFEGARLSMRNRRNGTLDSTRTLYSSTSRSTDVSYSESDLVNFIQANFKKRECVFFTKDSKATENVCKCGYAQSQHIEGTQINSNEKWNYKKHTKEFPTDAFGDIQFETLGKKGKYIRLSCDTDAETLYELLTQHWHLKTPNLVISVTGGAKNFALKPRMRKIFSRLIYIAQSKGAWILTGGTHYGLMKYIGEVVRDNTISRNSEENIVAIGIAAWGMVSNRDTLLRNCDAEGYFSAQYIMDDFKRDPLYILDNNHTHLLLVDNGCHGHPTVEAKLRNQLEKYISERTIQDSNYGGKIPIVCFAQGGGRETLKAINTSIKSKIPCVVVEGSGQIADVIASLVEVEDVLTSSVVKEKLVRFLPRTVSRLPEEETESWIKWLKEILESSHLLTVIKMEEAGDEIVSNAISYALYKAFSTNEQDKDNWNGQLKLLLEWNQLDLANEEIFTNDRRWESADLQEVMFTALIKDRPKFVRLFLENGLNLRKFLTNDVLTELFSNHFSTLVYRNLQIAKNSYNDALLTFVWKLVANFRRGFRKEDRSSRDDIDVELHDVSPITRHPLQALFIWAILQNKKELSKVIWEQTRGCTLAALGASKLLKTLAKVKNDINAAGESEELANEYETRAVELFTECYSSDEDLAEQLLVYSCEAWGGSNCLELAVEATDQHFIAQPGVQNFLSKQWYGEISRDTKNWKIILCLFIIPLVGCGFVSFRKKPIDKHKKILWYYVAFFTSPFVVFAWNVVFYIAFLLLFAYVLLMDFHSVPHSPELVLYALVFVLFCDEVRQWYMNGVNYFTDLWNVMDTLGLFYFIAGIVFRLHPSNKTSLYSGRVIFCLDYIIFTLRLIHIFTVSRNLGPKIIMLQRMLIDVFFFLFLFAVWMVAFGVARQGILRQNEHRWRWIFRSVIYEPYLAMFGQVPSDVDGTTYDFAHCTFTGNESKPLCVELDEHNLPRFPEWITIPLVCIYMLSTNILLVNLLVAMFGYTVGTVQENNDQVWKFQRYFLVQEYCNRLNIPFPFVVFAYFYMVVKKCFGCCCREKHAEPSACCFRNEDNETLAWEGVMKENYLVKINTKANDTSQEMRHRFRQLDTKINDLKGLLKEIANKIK
Sequence of human TRPM8 (Q7Z2W7 whole entry): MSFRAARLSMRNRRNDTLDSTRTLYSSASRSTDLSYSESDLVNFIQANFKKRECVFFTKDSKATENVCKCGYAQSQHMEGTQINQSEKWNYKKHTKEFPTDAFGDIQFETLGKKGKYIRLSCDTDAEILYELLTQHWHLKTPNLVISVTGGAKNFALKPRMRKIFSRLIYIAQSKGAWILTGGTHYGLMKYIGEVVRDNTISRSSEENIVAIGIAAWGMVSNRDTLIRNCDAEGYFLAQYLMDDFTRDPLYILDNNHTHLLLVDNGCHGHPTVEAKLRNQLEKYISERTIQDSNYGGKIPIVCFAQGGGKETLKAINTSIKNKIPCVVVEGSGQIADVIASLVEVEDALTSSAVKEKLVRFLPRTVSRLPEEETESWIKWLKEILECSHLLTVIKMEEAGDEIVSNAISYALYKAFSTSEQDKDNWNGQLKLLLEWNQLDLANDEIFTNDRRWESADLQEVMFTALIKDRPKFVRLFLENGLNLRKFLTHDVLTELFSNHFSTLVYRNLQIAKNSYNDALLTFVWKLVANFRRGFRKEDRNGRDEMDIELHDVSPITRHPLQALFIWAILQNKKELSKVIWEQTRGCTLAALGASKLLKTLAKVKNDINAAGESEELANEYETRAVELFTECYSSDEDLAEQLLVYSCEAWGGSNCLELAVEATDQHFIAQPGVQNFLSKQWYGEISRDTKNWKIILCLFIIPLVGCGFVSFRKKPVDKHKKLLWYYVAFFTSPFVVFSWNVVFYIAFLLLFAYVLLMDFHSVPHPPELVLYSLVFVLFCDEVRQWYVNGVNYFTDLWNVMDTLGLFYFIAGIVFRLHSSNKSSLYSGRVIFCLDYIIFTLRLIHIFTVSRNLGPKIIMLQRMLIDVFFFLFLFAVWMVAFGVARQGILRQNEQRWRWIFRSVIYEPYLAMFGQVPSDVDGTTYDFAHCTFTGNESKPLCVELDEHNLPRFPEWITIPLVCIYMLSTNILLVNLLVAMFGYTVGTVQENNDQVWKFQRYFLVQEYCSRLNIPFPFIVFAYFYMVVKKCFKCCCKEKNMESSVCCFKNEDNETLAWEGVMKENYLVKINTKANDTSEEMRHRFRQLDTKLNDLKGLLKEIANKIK

| SMILES | IC50 (canine TRPM8 [1]) | inhibition at 0.2 µM (canine TRPM8 [1]) | IC50 (human TRPM8; Freshly transfected cells) | IC50 (canine TRPM8 [2]; cold stimulation) | inhibition at 0.001 µM (canine TRPM8 [2]; cold stimulation) | inhibition at 0.003 µM (canine TRPM8 [2]; cold stimulation) | inhibition at 0.01 µM (canine TRPM8 [2]; cold stimulation) | inhibition at 0.03 µM (canine TRPM8 [2]; cold stimulation, 0.03 μM) | IC50 (canine TRPM8 [2]; menthol stimulation) | inhibition at 0.0003 µM (canine TRPM8 [2]; menthol stimulation) | inhibition at 0.001 µM (canine TRPM8 [2]; menthol stimulation) | inhibition at 0.003 µM (canine TRPM8 [2]; menthol stimulation) | inhibition at 0.01 µM (canine TRPM8 [2]; menthol stimulation) | Percent Reversal, relative to vehicle (male Sprague-Dawley rats; [3]) | Percent Reversal, relative to vehicle (male Sprague-Dawley rats; [4]) | IC50 (human TRPM8; Cryopreserved cells) | inhibition at 0.0003 µM (canine TRPM8 [2]; cold stimulation) | inhibition at 0.0001 µM (canine TRPM8 [2]; menthol stimulation, 0.0001 μM) |
| --- | --- | --- | --- | --- | --- | --- | --- | --- | --- | --- | --- | --- | --- | --- | --- | --- | --- | --- |
| Cc1c(N(Cc2ccc(F)c(C(F)(F)F)c2)S(=O)(=O)c2ccc(C(=O)O)cc2)sc2ccccc12 [Compound 306, N-(3-Methyl-benzo[b]thiophen-2-yl)-N-(4-fluoro-3-trifluoromethyl-benzyl)-4-carboxy-benzenesulfonamide] | 800 pM | 102% | 4000 pM | 2300 pM | 22.4% | 60.1% | 86.2% | 97.3% | 1100 pM | 11.6% | 47.3% | 78% | 94.9% | 100% | 64% |  |  |  |
| Cc1c(N(Cc2ccc(OC(F)(F)F)cc2)S(=O)(=O)c2ccc(C(=O)O)cc2)sc2ccccc12 [Compound 496, N-(3-Methyl-benzo[b]thiophen-2-yl)-N-(4-trifluoromethoxy-benzyl)-4-carboxy-benzenesulfonamide] | 800 pM | 101% |  | 554 pM | 77.7% | 96.4% |  |  | 183 pM | 68.6% | 95.8% | 99.6% |  | 106% | 74% | 1400 pM | 21.6% | 27.5% |
